# ChEMBL document CHEMBL4507277
# What was measured:
# [1] = target: Misshapen-like kinase 1 (Homo sapiens) (UniProt Q8N4C8); conditions: Compound concentration 1000.0 nM
# [2] = target: Casein kinase I isoform delta (Homo sapiens) (UniProt P48730); conditions: Compound concentration 1000.0 nM
# [3] = target: Transient receptor potential cation channel subfamily M member 6 (Homo sapiens) (UniProt Q9BX84); conditions: Compound concentration 1000.0 nM
# [4] = target: 5-hydroxytryptamine receptor 1D (Homo sapiens) (UniProt P28221); conditions: Compound concentration 10.0 uM
# [5] = target: Aurora kinase A (Homo sapiens) (UniProt O14965); conditions: Compound concentration 1000.0 nM
# [6] = target: Serine/threonine-protein kinase PLK2 (Homo sapiens) (UniProt Q9NYY3); conditions: Compound concentration 1000.0 nM
# [7] = target: Tyrosine-protein kinase Fyn (Homo sapiens) (UniProt P06241); conditions: Compound concentration 1000.0 nM
# [8] = target: Ephrin type-B receptor 4 (Homo sapiens) (UniProt P54760); conditions: Compound concentration 1000.0 nM
# [9] = target: Ribosomal protein S6 kinase alpha-3 (Homo sapiens) (UniProt P51812); conditions: Compound concentration 1000.0 nM
# Sequence of Ribosomal protein S6 kinase alpha-3 (Homo sapiens) (P51812 whole entry): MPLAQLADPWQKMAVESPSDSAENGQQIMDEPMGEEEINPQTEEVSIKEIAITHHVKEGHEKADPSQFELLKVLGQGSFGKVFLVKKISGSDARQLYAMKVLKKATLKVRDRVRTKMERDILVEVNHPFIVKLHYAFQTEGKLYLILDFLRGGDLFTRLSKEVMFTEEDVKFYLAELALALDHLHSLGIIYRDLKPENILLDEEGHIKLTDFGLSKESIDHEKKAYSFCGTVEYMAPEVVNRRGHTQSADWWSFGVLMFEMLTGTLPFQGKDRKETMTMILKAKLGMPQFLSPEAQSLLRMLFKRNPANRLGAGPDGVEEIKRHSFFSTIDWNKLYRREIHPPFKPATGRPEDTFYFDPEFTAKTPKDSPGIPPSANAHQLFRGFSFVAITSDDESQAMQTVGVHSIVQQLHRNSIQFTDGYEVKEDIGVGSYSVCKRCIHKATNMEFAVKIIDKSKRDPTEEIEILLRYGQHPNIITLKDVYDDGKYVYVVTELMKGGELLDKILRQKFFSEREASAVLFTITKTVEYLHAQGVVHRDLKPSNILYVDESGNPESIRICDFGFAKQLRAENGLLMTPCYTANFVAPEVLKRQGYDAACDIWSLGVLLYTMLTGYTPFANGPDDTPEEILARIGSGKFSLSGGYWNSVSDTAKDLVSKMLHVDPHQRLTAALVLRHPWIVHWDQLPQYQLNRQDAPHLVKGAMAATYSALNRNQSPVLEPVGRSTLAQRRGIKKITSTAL
# [10] = target: Protein kinase C theta type (Homo sapiens) (UniProt Q04759); conditions: Compound concentration 1000.0 nM
# [11] = target: Ephrin type-B receptor 2 (Homo sapiens) (UniProt P29323); conditions: Compound concentration 1000.0 nM
# [12] = target: Serine/threonine-protein kinase VRK2 (Homo sapiens) (UniProt Q86Y07); conditions: Compound concentration 1000.0 nM
# [13] = target: Mast/stem cell growth factor receptor Kit (Homo sapiens) (UniProt P10721); conditions: Compound concentration 1000.0 nM
# [14] = target: Phosphorylase b kinase gamma catalytic chain, skeletal muscle/heart isoform (Homo sapiens) (UniProt Q16816); conditions: Compound concentration 1000.0 nM
# [15] = target: Phosphatidylinositol 5-phosphate 4-kinase type-2 gamma (Homo sapiens) (UniProt Q8TBX8); conditions: Compound concentration 1000.0 nM
# [16] = target: Serine/threonine-protein kinase 17A (Homo sapiens) (UniProt Q9UEE5); conditions: Compound concentration 1000.0 nM
# [17] = target: Cyclin-dependent kinase 16 (Homo sapiens) (UniProt Q00536); conditions: Compound concentration 1000.0 nM
# Sequence of Cyclin-dependent kinase 16 (Homo sapiens) (Q00536 whole entry): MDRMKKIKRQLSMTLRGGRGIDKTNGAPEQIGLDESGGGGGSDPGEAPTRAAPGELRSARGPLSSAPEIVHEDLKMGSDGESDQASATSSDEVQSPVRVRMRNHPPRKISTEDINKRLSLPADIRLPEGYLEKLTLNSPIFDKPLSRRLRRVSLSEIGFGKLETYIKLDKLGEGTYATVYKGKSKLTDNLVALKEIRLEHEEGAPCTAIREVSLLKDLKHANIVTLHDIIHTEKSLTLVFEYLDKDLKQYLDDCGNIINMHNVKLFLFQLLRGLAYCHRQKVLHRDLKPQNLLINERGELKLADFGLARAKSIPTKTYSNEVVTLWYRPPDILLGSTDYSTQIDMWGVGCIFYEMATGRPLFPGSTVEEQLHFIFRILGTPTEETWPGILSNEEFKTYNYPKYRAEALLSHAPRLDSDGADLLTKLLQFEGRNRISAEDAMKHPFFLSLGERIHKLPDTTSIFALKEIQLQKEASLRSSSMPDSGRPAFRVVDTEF
# [18] = tested on: Hepatocyte growth factor receptor (Homo sapiens), P08581 [Y1235D]; conditions: Compound concentration 1000.0 nM
# [19] = target: Wee1-like protein kinase (Homo sapiens) (UniProt P30291); conditions: Compound concentration 1000.0 nM
# [20] = target: Homeodomain-interacting protein kinase 4 (Homo sapiens) (UniProt Q8NE63); conditions: Compound concentration 1000.0 nM
# [21] = target: Ephrin type-A receptor 2 (Homo sapiens) (UniProt P29317); conditions: Compound concentration 1000.0 nM
# [22] = tested on: Mast/stem cell growth factor receptor Kit (Homo sapiens), P10721 [D816V]; conditions: Compound concentration 1000.0 nM
# [23] = target: Histamine H1 receptor (Homo sapiens) (UniProt P35367); conditions: Compound concentration 10.0 uM
# Sequence of Histamine H1 receptor (Homo sapiens) (P35367 whole entry, canonical isoform): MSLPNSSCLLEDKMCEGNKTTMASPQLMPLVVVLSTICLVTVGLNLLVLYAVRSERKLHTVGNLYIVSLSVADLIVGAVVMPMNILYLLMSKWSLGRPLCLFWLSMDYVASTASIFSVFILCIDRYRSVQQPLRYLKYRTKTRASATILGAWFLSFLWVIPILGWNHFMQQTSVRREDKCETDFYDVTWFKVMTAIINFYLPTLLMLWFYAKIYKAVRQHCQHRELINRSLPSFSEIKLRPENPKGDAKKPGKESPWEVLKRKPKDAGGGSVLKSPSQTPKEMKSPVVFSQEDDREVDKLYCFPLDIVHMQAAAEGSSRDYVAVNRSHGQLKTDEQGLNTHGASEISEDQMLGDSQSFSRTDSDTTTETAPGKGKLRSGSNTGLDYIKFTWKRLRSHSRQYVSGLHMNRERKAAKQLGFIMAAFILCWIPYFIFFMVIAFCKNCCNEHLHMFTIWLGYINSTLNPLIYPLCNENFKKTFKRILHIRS
# [24] = tested on: Phosphatidylinositol 4,5-bisphosphate 3-kinase catalytic subunit alpha isoform (Homo sapiens), P42336 [Q546K]; conditions: Compound concentration 1000.0 nM
# [25] = target: Histamine H2 receptor (Homo sapiens) (UniProt P25021); conditions: Compound concentration 10.0 uM
# [26] = target: Homeodomain-interacting protein kinase 1 (Homo sapiens) (UniProt Q86Z02); conditions: Compound concentration 1000.0 nM
# [27] = target: Serine/threonine-protein kinase Nek6 (Homo sapiens) (UniProt Q9HC98); conditions: Compound concentration 1000.0 nM
# [28] = target: Atypical kinase COQ8A, mitochondrial (Homo sapiens) (UniProt Q8NI60); conditions: Compound concentration 1000.0 nM
# [29] = target: Inhibitor of nuclear factor kappa-B kinase subunit epsilon (Homo sapiens) (UniProt Q14164); conditions: Compound concentration 1000.0 nM
# Sequence of Inhibitor of nuclear factor kappa-B kinase subunit epsilon (Homo sapiens) (Q14164 whole entry): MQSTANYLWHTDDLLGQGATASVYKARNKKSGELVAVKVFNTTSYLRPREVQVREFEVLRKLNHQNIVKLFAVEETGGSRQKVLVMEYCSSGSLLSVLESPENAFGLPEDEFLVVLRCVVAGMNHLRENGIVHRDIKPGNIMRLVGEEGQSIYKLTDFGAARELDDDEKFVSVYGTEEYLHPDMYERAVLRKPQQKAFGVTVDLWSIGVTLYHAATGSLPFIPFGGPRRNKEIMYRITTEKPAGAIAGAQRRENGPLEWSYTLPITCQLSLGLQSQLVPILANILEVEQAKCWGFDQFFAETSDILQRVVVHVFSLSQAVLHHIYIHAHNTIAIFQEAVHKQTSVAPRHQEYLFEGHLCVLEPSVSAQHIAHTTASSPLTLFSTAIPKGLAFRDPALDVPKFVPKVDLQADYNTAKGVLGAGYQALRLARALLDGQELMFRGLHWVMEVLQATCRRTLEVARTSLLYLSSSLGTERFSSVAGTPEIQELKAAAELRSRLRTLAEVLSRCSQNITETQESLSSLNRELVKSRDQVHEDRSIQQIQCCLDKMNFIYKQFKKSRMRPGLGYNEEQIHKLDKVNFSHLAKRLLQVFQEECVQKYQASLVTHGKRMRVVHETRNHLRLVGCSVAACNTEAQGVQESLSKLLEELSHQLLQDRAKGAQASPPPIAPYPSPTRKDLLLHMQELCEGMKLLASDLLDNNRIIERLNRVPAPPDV
# [30] = target: Ribosomal protein S6 kinase alpha-1 (Homo sapiens) (UniProt Q15418); conditions: Compound concentration 1000.0 nM
# [31] = target: Cyclin-dependent kinase 19 (Homo sapiens) (UniProt Q9BWU1); conditions: Compound concentration 1000.0 nM
# [32] = target: Serine/threonine-protein kinase SIK3 (Homo sapiens) (UniProt Q9Y2K2); conditions: Compound concentration 1000.0 nM
# [33] = target: Ribosomal protein S6 kinase alpha-4 (Homo sapiens) (UniProt O75676); conditions: Compound concentration 1000.0 nM
# [34] = tested on: Leucine-rich repeat serine/threonine-protein kinase 2 (Homo sapiens), Q5S007 [G2019S]; conditions: Compound concentration 1000.0 nM
# [35] = target: Glycogen synthase kinase-3 alpha (Homo sapiens) (UniProt P49840); conditions: Compound concentration 1000.0 nM
# [36] = target: Ribosomal protein S6 kinase alpha-2 (Homo sapiens) (UniProt Q15349); conditions: Compound concentration 1000.0 nM
# Sequence of Ribosomal protein S6 kinase alpha-2 (Homo sapiens) (Q15349 whole entry): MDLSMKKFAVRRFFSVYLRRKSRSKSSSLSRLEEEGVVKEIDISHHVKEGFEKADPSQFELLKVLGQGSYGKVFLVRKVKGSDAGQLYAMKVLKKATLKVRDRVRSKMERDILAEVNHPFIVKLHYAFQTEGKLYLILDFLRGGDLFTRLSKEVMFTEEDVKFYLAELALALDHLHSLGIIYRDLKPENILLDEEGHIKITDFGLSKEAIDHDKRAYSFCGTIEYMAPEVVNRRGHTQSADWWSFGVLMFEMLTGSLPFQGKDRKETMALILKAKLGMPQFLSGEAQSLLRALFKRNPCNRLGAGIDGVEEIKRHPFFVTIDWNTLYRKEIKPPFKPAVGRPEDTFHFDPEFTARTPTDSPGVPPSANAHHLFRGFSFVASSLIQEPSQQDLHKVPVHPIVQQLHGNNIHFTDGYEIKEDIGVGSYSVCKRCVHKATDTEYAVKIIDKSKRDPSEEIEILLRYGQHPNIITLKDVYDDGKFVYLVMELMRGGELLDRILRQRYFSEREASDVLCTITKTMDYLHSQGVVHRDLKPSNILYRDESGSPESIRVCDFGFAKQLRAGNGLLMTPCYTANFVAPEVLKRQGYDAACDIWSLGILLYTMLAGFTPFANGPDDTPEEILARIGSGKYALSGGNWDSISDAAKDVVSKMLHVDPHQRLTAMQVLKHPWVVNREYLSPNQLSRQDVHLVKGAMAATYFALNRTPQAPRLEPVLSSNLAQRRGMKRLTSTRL
# [37] = target: Peripheral plasma membrane protein CASK (Homo sapiens) (UniProt O14936); conditions: Compound concentration 1000.0 nM
# [38] = target: Serine/threonine-protein kinase haspin (Homo sapiens) (UniProt Q8TF76); conditions: Compound concentration 1000.0 nM
# [39] = target: Ankyrin repeat and protein kinase domain-containing protein 1 (Homo sapiens) (UniProt Q8NFD2); conditions: Compound concentration 1000.0 nM
# [40] = target: Testis-specific serine/threonine-protein kinase 1 (Homo sapiens) (UniProt Q9BXA7); conditions: Compound concentration 1000.0 nM
# [41] = target: Protein kinase C eta type (Homo sapiens) (UniProt P24723); conditions: Compound concentration 1000.0 nM
# [42] = target: Serine/threonine-protein kinase tousled-like 2 (Homo sapiens) (UniProt Q86UE8); conditions: Compound concentration 1000.0 nM
# [43] = tested on: Tyrosine-protein kinase ABL1 (Homo sapiens), P00519 [Q252H]; conditions: Compound concentration 1000.0 nM
# [44] = target: NUAK family SNF1-like kinase 2 (Homo sapiens) (UniProt Q9H093); conditions: Compound concentration 1000.0 nM
# Sequence of NUAK family SNF1-like kinase 2 (Homo sapiens) (Q9H093 whole entry): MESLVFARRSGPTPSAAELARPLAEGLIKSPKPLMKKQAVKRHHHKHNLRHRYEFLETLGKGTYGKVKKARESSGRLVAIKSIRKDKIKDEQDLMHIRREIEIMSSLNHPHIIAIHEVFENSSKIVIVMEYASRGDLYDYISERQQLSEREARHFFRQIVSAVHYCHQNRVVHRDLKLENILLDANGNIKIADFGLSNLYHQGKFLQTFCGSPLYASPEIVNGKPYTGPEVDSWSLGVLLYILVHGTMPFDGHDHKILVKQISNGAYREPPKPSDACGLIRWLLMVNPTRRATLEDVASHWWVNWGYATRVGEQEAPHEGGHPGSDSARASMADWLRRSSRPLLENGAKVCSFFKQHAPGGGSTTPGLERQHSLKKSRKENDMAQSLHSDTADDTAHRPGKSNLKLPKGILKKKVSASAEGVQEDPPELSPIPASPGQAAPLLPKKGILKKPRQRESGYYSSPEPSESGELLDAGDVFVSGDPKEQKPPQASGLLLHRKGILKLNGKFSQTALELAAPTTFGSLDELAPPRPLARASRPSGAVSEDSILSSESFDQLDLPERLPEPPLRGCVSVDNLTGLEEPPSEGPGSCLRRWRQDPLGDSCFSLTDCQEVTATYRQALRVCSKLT
# [45] = target: 3-phosphoinositide-dependent protein kinase 1 (Homo sapiens) (UniProt O15530); conditions: Compound concentration 1000.0 nM
# Sequence of 3-phosphoinositide-dependent protein kinase 1 (Homo sapiens) (O15530 whole entry): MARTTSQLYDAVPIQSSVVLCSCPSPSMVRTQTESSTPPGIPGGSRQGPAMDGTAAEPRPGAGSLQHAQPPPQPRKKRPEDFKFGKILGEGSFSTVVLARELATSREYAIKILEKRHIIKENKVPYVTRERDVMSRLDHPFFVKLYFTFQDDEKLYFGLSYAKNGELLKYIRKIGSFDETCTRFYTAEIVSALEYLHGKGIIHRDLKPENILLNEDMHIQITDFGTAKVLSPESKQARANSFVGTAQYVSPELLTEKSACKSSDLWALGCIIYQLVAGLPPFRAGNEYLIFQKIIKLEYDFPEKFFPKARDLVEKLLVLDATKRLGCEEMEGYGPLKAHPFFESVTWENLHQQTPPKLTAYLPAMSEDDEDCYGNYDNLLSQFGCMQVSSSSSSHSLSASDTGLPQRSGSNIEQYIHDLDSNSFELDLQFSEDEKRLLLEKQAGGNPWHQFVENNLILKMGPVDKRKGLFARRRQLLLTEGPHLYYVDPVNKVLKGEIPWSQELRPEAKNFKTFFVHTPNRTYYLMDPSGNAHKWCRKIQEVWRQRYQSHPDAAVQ
# Sequence of Casein kinase I isoform delta (Homo sapiens) (P48730 whole entry, looked up, canonical isoform): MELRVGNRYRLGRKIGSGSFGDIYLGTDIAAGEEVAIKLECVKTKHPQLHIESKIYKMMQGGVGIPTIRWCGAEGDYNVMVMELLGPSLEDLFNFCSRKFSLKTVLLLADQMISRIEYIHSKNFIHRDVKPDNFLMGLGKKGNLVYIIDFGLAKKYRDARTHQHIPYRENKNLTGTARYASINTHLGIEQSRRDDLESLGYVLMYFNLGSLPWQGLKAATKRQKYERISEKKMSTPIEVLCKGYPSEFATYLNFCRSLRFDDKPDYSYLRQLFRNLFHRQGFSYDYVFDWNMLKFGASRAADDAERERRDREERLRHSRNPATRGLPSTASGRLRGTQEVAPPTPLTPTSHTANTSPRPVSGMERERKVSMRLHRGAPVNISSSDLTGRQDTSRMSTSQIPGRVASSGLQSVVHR
smiles,measurement,setting,value
CCS(=O)(=O)c1cc2cc(C[C@](O)(CC(C)(C)c3ccc(F)cc3C(N)=O)C(F)(F)F)[nH]c2cn1,residual activity,[1],89%
same,residual activity,[2],96%
same,residual activity,[3],86%
same,inhibition,[4],5.54%
same,residual activity,[5],88%
same,residual activity,[6],91%
same,residual activity,[7],77%
same,residual activity,[8],100%
same,residual activity,[9],93%
same,residual activity,[10],87%
same,residual activity,[11],100%
same,residual activity,[12],100%
same,residual activity,[13],95%
same,residual activity,[14],66%
same,residual activity,[15],100%
same,residual activity,[16],80%
same,residual activity,[17],100%
same,residual activity,[18],100%
same,residual activity,[19],100%
same,residual activity,[20],100%
same,residual activity,[21],81%
same,residual activity,[22],100%
same,inhibition,[23],4.27%
same,residual activity,[24],80%
same,inhibition,[25],12.3%
same,residual activity,[26],94%
same,residual activity,[27],100%
same,residual activity,[28],92%
same,residual activity,[29],100%
same,residual activity,[30],100%
same,residual activity,[31],100%
same,residual activity,[32],85%
same,residual activity,[33],98%
same,residual activity,[34],100%
same,residual activity,[35],100%
same,residual activity,[36],81%
same,residual activity,[37],100%
same,residual activity,[38],100%
same,residual activity,[39],89%
same,residual activity,[40],94%
same,residual activity,[41],94%
same,residual activity,[42],100%
same,residual activity,[43],100%
same,residual activity,[44],95%
same,residual activity,[45],100%
CCS(=O)(=O)c1cc2cc(C[C@@](O)(CC(C)(C)c3ccc(F)cc3C(N)=O)C(F)(F)F)[nH]c2cn1,residual activity,[1],79%
same,residual activity,[2],100%
same,residual activity,[3],72%
same,inhibition,[4],7.98%
same,residual activity,[5],88%
same,residual activity,[6],100%
same,residual activity,[7],100%
same,residual activity,[8],100%
same,residual activity,[9],100%
same,residual activity,[10],97%
same,residual activity,[11],95%
same,residual activity,[12],80%
same,residual activity,[13],100%
same,residual activity,[14],67%
same,residual activity,[15],100%
same,residual activity,[16],80%
same,residual activity,[17],78%
same,residual activity,[18],100%
same,residual activity,[19],100%
same,residual activity,[20],100%
same,residual activity,[21],67%
same,residual activity,[22],90%
same,inhibition,[23],6.19%
same,residual activity,[24],69%
same,inhibition,[25],6.84%
same,residual activity,[26],90%
same,residual activity,[27],100%
same,residual activity,[28],95%
same,residual activity,[29],83%
same,residual activity,[30],100%
same,residual activity,[31],100%
same,residual activity,[32],81%
same,residual activity,[33],78%
same,residual activity,[34],100%
same,residual activity,[35],100%
same,residual activity,[36],0%
same,residual activity,[37],100%
same,residual activity,[38],80%
same,residual activity,[39],70%
same,residual activity,[40],96%
same,residual activity,[41],100%
same,residual activity,[42],97%
same,residual activity,[43],92%
same,residual activity,[44],84%
same,residual activity,[45],100%
